This is an account of results in article PMC6637425 (ChemMedChem, 2019).

Molecules are shown by their SMILES. Read-outs that look alike come from different tables or passages of the source.

The target of one assay is BACE1 enzyme (Homo sapiens, UniProt P56817). As to the kind of experiment: BACE1 enzyme inhibition, Ki from kinetic data under tight-binding conditions. Format: biochemical.
The next assay concerns the target T1, BACE2 enzyme (Homo sapiens, UniProt Q9Y5Z0).
T1 sequence (Q9Y5Z0 63-518): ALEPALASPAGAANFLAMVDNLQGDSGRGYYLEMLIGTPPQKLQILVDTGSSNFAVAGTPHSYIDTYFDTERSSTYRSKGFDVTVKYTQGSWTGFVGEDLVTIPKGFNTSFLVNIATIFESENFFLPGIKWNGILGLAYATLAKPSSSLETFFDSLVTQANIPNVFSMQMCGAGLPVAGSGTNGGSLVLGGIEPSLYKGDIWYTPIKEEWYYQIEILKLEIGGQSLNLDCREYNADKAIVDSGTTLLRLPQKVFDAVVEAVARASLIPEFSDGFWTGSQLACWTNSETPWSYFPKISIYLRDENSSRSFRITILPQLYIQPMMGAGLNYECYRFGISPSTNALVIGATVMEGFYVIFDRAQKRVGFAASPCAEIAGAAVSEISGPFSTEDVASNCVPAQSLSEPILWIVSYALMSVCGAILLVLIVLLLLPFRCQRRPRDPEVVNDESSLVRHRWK
As to the kind of experiment: BACE2 enzyme inhibition, Ki from kinetic data under tight-binding conditions. In kind it is biochemical. The settings on record: for selectivity for BACE2 over BACE1: ratio of Ki values.

Setting [1] is: read-out: Ki (nM) BACE1, Table 3.
The mark [2] stands for this setting: read-out: Ki (nM) BACE2, Table 3.
[3] abbreviates: Ki (nM) BACE1, Table 1, new inhibitors 2f-j.
Setting [4] is: Ki (nM) BACE2, Table 1, new inhibitors 2f-j.
Setting [5] is: read-out: Ki (nM) BACE1, Table 2.
Where [6] appears, read: read-out: Ki (nM) BACE2, Table 2.

Chain of BACE1 enzyme (P56817 46-501): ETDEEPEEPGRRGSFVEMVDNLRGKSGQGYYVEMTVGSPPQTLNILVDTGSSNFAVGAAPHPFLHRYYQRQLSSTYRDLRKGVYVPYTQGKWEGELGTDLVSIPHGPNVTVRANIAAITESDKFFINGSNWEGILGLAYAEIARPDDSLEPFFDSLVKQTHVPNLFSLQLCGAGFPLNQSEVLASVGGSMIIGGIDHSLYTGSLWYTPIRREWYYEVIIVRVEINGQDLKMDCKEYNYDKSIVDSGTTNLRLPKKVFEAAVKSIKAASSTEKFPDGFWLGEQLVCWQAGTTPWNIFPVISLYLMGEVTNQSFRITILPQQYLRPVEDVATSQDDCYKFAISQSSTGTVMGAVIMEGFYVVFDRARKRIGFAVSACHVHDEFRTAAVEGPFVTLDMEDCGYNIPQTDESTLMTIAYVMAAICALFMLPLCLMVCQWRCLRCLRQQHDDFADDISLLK

`COc1cccc(CNC[C@@H](O)[C@H](Cc2ccccc2)NC(=O)c2cc(C)cc(C(=O)N(C)C(C)c3nc(C)co3)c2)c1` (mixture of isomers) [inhibitor 3o, N^1-((2S,3R)-3-Hydroxy-4-((3-methoxybenzyl)ammo)-1-phenylbutan-2-yl)-N^3,5-dimethyl-N^3-(1-(4-methyloxazol-2-yl)ethyl)isophthalamide]: the values for the Ki at BACE1 enzyme (setting [1]) and on BACE2 enzyme (setting [2]) were 767 nM and 801 nM, respectively. Besides, the “selectivity for BACE2 over BACE1” value at BACE2 enzyme is given as “no appreciable selectivity”.
Take `COC[C@H]1CCCN1C(=O)c1cccc(C(=O)N[C@@H](Cc2ccccc2)[C@H](O)CN[C@H](C(=O)NCC(C)C)[C@H](C)O)c1` [inhibitor 2f, N-((2S,3R)-3-Hydroxy-4-(((2S,3S)-3-hydroxy-1-(isobutylamino)-1-oxobutan-2-yl)amino)-1-phenylbutan-2-yl)-3-((R)-2-(methoxymethyl)pyrrolidine-1-carbonyl)benzamide]: the Ki came to 3020 nM on BACE1 enzyme (setting [3]) and 1370 nM at BACE2 enzyme (setting [4]).
Taken in the same sequence, the figures for `CCC[C@H](O)[C@H](NC[C@@H](O)[C@H](Cc1ccccc1)NC(=O)c1cc(C)cc(C(=O)N2CCC[C@@H]2COC)c1)C(=O)NCC(C)C` [inhibitor 2g, N-((2S,3R)-3-Hydroxy-4-(((2S,3S)-3-hydroxy-1-(isobutylamino)-1-oxohexan-2-yl)amino)-1-phenylbutan-2-yl)-3-((R)-2-(methoxymethyl)pyrrolidine-1-carbonyl)-5-methylbenzamide] were 6.6 nM and 27.9 nM.
On to `Cc1cc(C(=O)N[C@@H](Cc2ccccc2)[C@H](O)CN[C@H](C(=O)NCC(C)C)[C@H](C)O)cc(C(=O)N(C)Cc2nc(C)cs2)c1` [inhibitor 2h, N^1-((2S,3R)-3-Hydroxy-4-(((2S,3S)-3-hydroxy-1-(isobutylamino)-1-oxobutan-2-yl)amino)-1-phenylbutan-2-yl)-N^3,5-dimethyl-N^3-((4-methylthiazol-2-yl)methyl)isophthalamide], for which the Ki at BACE1 enzyme (setting [3]) is 176 nM; at BACE2 enzyme (setting [4]), 96.9 nM. Further, the “selectivity for BACE2 over BACE1” value at BACE2 enzyme was 2 fold.
On to `CCC[C@H](O)[C@H](NC[C@@H](O)[C@H](Cc1ccccc1)NC(=O)c1cccc(C(=O)N(C)Cc2nc(C)cs2)c1)C(=O)NCC(C)C` [inhibitor 2i, N^1-((2S,3R)-3-Hydroxy-4-(((2S,3S)-3-hydroxy-1-(isobutylamino)-1-oxohexan-2-yl)amino)-1-phenylbutan-2-yl)-N^3-methyl-N^3-((4-methylthiazol-2-yl)methyl)isophthalamide], for which the Ki was 33.1 nM at BACE1 enzyme (setting [3]) and 51.1 nM at BACE2 enzyme (setting [4]).
Taken in the same sequence, the figures for `CCC[C@H](O)[C@H](NC[C@@H](O)[C@H](Cc1ccccc1)NC(=O)c1cc(C)cc(C(=O)N(C)Cc2nc(C)cs2)c1)C(=O)NCC(C)C` [inhibitor 2j, N^1-((2S,3R)-3-Hydroxy-4-(((2S,3S)-3-hydroxy-1-(isobutylamino)-1-oxohexan-2-yl)amino)-1-phenylbutan-2-yl)-N^3,5-dimethyl-N^3-((4-methylthiazol-2-yl)methyl)isophthalamide] were 34.2 nM and 25.3 nM.
In the case of `COc1cccc([C@@H](NC[C@@H](O)[C@H](Cc2ccccc2)NC(=O)c2cc(C(=O)N[C@H](C)c3ccccc3)cc(N(C)S(C)(=O)=O)c2)[C@H](C)O)c1` [inhibitor 3a, N^1-((2S,3R)-3-Hydroxy-4-(((1R,2S)-2-hydroxy-1-(3-methoxyphenyl)propyl)ammo)-1-phenylbutan-2-yl)-5-(N-methylmethylsulfonamido)-N^3-((R)-1-phenylethyl)isophthalamide], the Ki at BACE1 enzyme (read-out: BACE1 Ki) came out at 205 nM; at BACE1 enzyme (setting [5]) it was 205 nM; at BACE2 enzyme (read-out: BACE2 Ki), 731 nM; on BACE2 enzyme (setting [6]), 731 nM.
For the compound `COc1cccc([C@@H](NC[C@@H](O)[C@H](Cc2ccccc2)NC(=O)c2cc(C(=O)N(C)[C@H](C)c3ccccc3)cc(N(C)S(C)(=O)=O)c2)[C@H](C)O)c1` [inhibitor 3b, N^1-((2S,3R)-3-Hydroxy-4-(((1R,2S)-2-hydroxy-1-(3-methoxyphenyl)propyl)ammo)-1-phenylbutan-2-yl)-N^3-methyl-5-(N-methylmethylsulfonamido)-N^3-((R)-1-phenylethyl)isophthalamide], the values for the Ki at BACE1 enzyme (setting [5]) and at BACE2 enzyme (setting [6]) were 4850 nM and 479 nM, respectively.
For the compound `COc1cccc([C@@H](NC[C@@H](O)[C@H](Cc2ccccc2)NC(=O)c2cccc(C(=O)N(C)[C@H](C)c3ccccc3)c2)[C@H](C)O)c1` [inhibitor 3c, N^1-((2S,3R)-3-Hydroxy-4-(((1R,2S)-2-hydroxy-1-(3-methoxyphenyl)propyl)ammo)-1-phenylbutan-2-yl)-N^3-methyl-N^3-((R)-1-phenylethyl)isophthalamide], the Ki was determined as 51300 nM at BACE1 enzyme (setting [5]) and 950 nM at BACE2 enzyme (setting [6]). Moreover, the “selectivity for BACE2 over BACE1” value on BACE2 enzyme is listed as 54 fold.
`COc1cccc([C@@H](NC[C@@H](O)[C@H](Cc2ccccc2)NC(=O)c2cc(C)cc(C(=O)N(C)[C@H](C)c3ccccc3)c2)[C@H](C)O)c1` [inhibitor 3d, N^1-((2S,3R)-3-Hydroxy-4-(((1R,2S)-2-hydroxy-1-(3-methoxyphenyl)propyl)amino)-1-phenylbutan-2-yl)-N^3,5-dimethyl-N^3-((R)-1-phenylethyl)isophthalamide]: the Ki on BACE1 enzyme (Ki (nM) BACE1, Table 2) stood at 16200 nM; at BACE2 enzyme (Ki (nM) BACE2, Table 2) it was 480 nM. Also, at BACE2 enzyme, the “selectivity for BACE2 over BACE1” value was 34 fold.
On the same counts, the results for `CCC[C@H](O)[C@H](NC[C@@H](O)[C@H](Cc1ccccc1)NC(=O)c1cccc(C(=O)N(C)[C@H](C)c2ccccc2)c1)c1cccc(OC)c1` [inhibitor 3e, N^1-((2S,3R)-3-Hydroxy-4-(((1R,2S)-2-hydroxy-1-(3-methoxyphenyl)pentyl)amino)-1-phenylbutan-2-yl)-N^3-methyl-N^3-((R)-1-phenylethyl)isophthalamide] are 38600 nM, 243 nM and 159 fold.
Turning to `CCC[C@H](O)[C@H](NC[C@@H](O)[C@H](Cc1ccccc1)NC(=O)c1cc(C)cc(C(=O)N(C)[C@H](C)c2ccccc2)c1)c1cccc(OC)c1` [inhibitor 3f, N^1-((2S,3R)-3-Hydroxy-4-(((1R,2S)-2-hydroxy-1-(3-methoxyphenyl)pentyl)ammo)-1-phenylbutan-2-yl)-N^3,5-dimethyl-N^3-((R)-1-phenylethyl)isophthalamide], the Ki at BACE1 enzyme (setting [5]) was 8800 nM; at BACE2 enzyme (setting [6]), 141 nM. For the same compound, at BACE2 enzyme, the “selectivity for BACE2 over BACE1” value is recorded as 62 fold.
Take `CCC[C@H](O)[C@H](NC[C@@H](O)[C@H](Cc1ccccc1)NC(=O)c1cccc(C(=O)N(C)[C@H](C)c2ccccc2)c1)c1ccccc1` [inhibitor 3g, N^1-((2S,3R)-3-Hydroxy-4-(((1R,2S)-2-hydroxy-1-phenylpentyl)ammo)-1-phenylbutan-2-yl)-N^3-methyl-N^3-((R)-1-phenylethyl)isophthalamide]: the results for the Ki at BACE1 enzyme (setting [5]) and at BACE2 enzyme (setting [6]) were 42500 nM and 2550 nM, respectively.
On to `CCC[C@H](O)[C@H](NC[C@@H](O)[C@H](Cc1ccccc1)NC(=O)c1cc(C)cc(C(=O)N(C)[C@H](C)c2ccccc2)c1)c1ccccc1` [inhibitor 3h, N^1-((2S,3R)-3-Hydroxy-4-(((1R,2S)-2-hydroxy-1-phenylpentyl)amino)-1-phenylbutan-2-yl)-N3,5-dimethyl-N^3-((R)-1-phenylethyl)isophthalamide], for which the Ki on BACE1 enzyme (Ki (nM) BACE1, Table 2) came out at 18100 nM; on BACE2 enzyme (Ki (nM) BACE2, Table 2) it was 905 nM.
For the compound `COc1cccc(CNC[C@@H](O)[C@H](Cc2ccccc2)NC(=O)c2cccc(C(=O)N(C)[C@H](C)c3ccccc3)c2)c1` [inhibitor 3i, N^1-((2S,3R)-3-Hydroxy-4-((3-methoxybenzyl)ammo)-1-phenylbutan-2-yl)-N^3-methyl-N^3-((R)-1-phenylethyl)isophthalamide], the Ki on BACE1 enzyme (setting [1]) was 2080 nM; at BACE2 enzyme (read-out: BACE2 Ki), 39.4 nM; at BACE2 enzyme (setting [2]), 39.5 nM.
For `COc1cccc(CNC[C@@H](O)[C@H](Cc2ccccc2)NC(=O)c2cc(C)cc(C(=O)N(C)[C@H](C)c3ccccc3)c2)c1` [inhibitor 3j, N^1-((2S,3R)-3-Hydroxy-4-((3-methoxybenzyl)ammo)-1-phenylbutan-2-yl)-N3,5-dimethyl-N^3-((R)-1-phenylethyl)isophthalamide], the values for the Ki on BACE1 enzyme (setting [1]) and at BACE2 enzyme (setting [2]) were 837 nM and 14 nM, respectively. In addition, the “selectivity for BACE2 over BACE1” value on BACE2 enzyme is about 60 fold.
Take `C[C@H](c1ccccc1)N(C)C(=O)c1cccc(C(=O)N[C@@H](Cc2ccccc2)[C@H](O)CNCc2cccc(C(F)(F)F)c2)c1` [inhibitor 3k, N^1-((2S,3R)-3-Hydroxy-1-phenyl-4-((3-(trifluoromethyl)benzyl)amino)butan-2-yl)-N^3-methyl-N^3-((R)-1-phenylethyl)isophthalamide]: the Ki came to 1350 nM at BACE1 enzyme (Ki (nM) BACE1, Table 3); 35.7 nM on BACE2 enzyme (BACE2 Ki); 35.7 nM at BACE2 enzyme (Ki (nM) BACE2, Table 3). The “selectivity for BACE2 over BACE1” value at BACE2 enzyme was 37 fold.
For `Cc1cc(C(=O)N[C@@H](Cc2ccccc2)[C@H](O)CNCc2cccc(C(F)(F)F)c2)cc(C(=O)N(C)[C@H](C)c2ccccc2)c1` [inhibitor 3l, N^1-((2S,3R)-3-Hydroxy-1-phenyl-4-((3-(trifluoromethyl)benzyl)ammo)butan-2-yl)-N^3,5-dimethyl-N^3-((R)-1-phenylethyl)isophthalamide], the inhibition constant (Ki) at BACE1 enzyme (setting [1]) was found to be 815 nM; on BACE2 enzyme (setting [2]), 1.6 nM. Also, the “selectivity for BACE2 over BACE1” value on BACE2 enzyme is reported as “over 500 fold”.
